Test results from patent US20240002397A1, “3-AMINO PYRROLIDINE AND PIPERIDINE MACROCYCLIC OREXIN RECEPTOR AGONISTS” (Merck Sharp & Dohme LLC, priority 2020, published 2024).

biological target: T1, human OX2R (Homo sapiens, UniProt O43614); experiment: IPOne (IP-1) orexin receptor agonist assay in CHO cells expressing human OX2R; conditions: CHO, hOX2R IP-One; percentage of mean max effect of a reference compound at 1 uM with 100% activity
T1 sequence (O43614 1-444): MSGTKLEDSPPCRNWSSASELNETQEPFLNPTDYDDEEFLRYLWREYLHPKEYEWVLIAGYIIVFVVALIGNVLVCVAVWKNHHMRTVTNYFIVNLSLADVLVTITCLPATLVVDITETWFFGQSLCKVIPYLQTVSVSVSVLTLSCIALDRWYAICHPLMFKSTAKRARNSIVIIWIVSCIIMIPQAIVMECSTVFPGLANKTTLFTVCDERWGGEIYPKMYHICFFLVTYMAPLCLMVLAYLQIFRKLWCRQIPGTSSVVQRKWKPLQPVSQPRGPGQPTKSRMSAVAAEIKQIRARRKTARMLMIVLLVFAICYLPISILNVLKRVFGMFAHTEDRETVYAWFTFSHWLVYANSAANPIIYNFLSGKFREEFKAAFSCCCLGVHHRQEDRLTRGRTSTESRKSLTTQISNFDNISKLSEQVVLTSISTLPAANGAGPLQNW
Protocol: In atypical experiment, the OX1 and OX2 receptor agonist activity is determined in accordance with the following general experimental method. Chinese hamster ovary (CHO) cells expressing human OX1R and/or the human OX2R were grown in Iscove's modified DMEM containing glutaMAX™, 1% G418, 100 U/mL penicillin, 100 μg/mL streptomycin and 10% heat-inactivated qualified fetal bovine serum (FBS). […] During this incubation, IP-one detection reagents were prepared (38:1:1 lysis buffer:D2:AB-cryptate reagents).
For each compound, data were fit to a four parameter logistic fit (ActivityBase software) and the EC50 was reported as the inflection point of the resulting curve.

SMILES | Emax [%]
C[C@@H]1C[C@H](NS(C)(=O)=O)C2CO[C@H]3CC=C(CC3)c3cc(F)cc(c3)OCCCCC(=O)N21 (some centres unmarked) [Example 43, N-((2^1S,2^4S, 5^2R,5^3S,5^5R)-1^5-fluoro-5^5-methyl-6-oxo-3,11-dioxa-5(2,1)-pyrrolidina-1(1,3)-benzena-2(1,4)-cyclohexana-cyclounde-caphan-2^1-en-5^3-yl)methane-sulfonamide] | 102
C[C@@H]1C[C@H](NS(C)(=O)=O)C2COC3CCC(CC3)c3cc(F)cc(c3)OCCCCC(=O)N21 (some centres unmarked) [Example 44, N-((2^1S,2^4S, 5^2R,5^3S,5^5R)-1^5-fluoro-5^5-methyl-6-oxo-3,11-dioxa-5(2,1)-pyrrolidina-1(1,3)-benzena-2(1,4)-cyclohexana-cyclounde-caphane-5^3-yl)methane-sulfonamide] | 102
C[C@@H]1C[C@H](NS(C)(=O)=O)C2COC3CCC(CC3)c3ccc(C#N)c(c3)OCCCOC(=O)N21 (some centres unmarked) [Example 45, N-((2^1S,2^4S, 5^2R,5^3S,5^5R)-1^4-cyano-5^5-methyl-6-oxo-3,7,11-trioxa-5(2,1)-pyrrolidina-1(1,3)-benzena-2(1,4)-cyclohexana-cyclounde-caphane-5^3-yl)methane-sulfonamide] | 103
C[C@@H]1C[C@H](NS(C)(=O)=O)C2CO[C@H]3CC=C(CC3)c3cccc(c3F)OCCCOC(=O)N21 (some centres unmarked) [Example 46, N-((2^1S,2^4S, 5^2R,5^3S,5^5R)-1^2-fluoro-5^5-methyl-6-oxo-3,7,11-trioxa-5(2,1)-pyrrolidina-1(1,3)-benzena-2(1,4)-cyclohexana-cyclounde-caphan-2^1-en-5^3-yl)methane-sulfonamide] | 102
C[C@@H]1C[C@H](NS(C)(=O)=O)C2COC3CCC(CC3)c3cccc(c3F)OCCCOC(=O)N21 (some centres unmarked) [Example 47, N-((2^1S,2^4S, 5^2R,5^3S,5^5R)-1^2-fluoro-5^5-methyl-6-oxo-3,7,11-trioxa-5(2,1)-pyrrolidina-1(1,3)-benzena-2(1,4)-cyclohexana-cyclounde-caphane-5^3-yl)methane-sulfonamide] | 102
C[C@@H]1C[C@H](NS(C)(=O)=O)C2COC3CCC(CC3)c3cc(F)cc(c3F)OCCCOC(=O)N21 (some centres unmarked) [Example 48, N-((2^1S,2^4S, 5^2R,5^3S,5^5R)-1^2,1^5-difluoro-5^5-methyl-6-oxo-3,7,11-trioxa-5(2,1)-pyrrolidina-1(1,3)-benzena-2(1,4)-cyclohexana-cyclounde-caphane-5^3-yl)methane-sulfonamide] | 101
C[C@@H]1C[C@H](NS(C)(=O)=O)C2COC3CCC(CC3)c3cc(cc(C(F)(F)F)c3)OCCCOC(=O)N21 (some centres unmarked) [Example 49, N-((2^1S,2^4S, 5^2R,5^3S,5^5R)-5^5-methyl-6-oxo-1^5-(trifluoro-methyl)-3,7,11-trioxa-5(2,1)-pyrrolidina-1(1,3)-benzena-2(1,4)-cyclohexana-cyclounde-caphane-5^3-yl)methane-sulfonamide] | 101
C[C@@H]1C[C@H](NS(C)(=O)=O)C2COC3CCC(CC3)c3cc(ccc3OC(F)(F)F)OCCCOC(=O)N21 (some centres unmarked) [Example 50, N-((2^1S,2^4S, 5^2R,5^3S,5^5R)-5^5-methyl-6-oxo-1^6-(trifluoro-methoxy)-3,7,11-trioxa-5(2,1)-pyrrolidina-1(1,3)-benzena-2(1,4)-cyclohexana-cyclounde-caphane-5^3-yl)methane-sulfonamide] | 101
C[C@@H]1C[C@H](NS(C)(=O)=O)[C@@H]2CO[C@H]3CC[C@H](CC3)c3cc(C(F)(F)F)cc(n3)OCCCOC(=O)N12 [Example 51, N-((2^1S,2^4S,5^2R,5^3S,5^5R)-5^5-methyl-6-oxo-14-(trifluoromethyl)-3,7,11-trioxa-1(2,6)-pyridina-5(2,1)-pyrrolidina-2(1,4)-cyclohexanacycloundecaphane-5^3-yl)methanesulfonamide] | 99.2
C[C@@H]1C[C@H](NS(C)(=O)=O)C2COC3CCC(CC3)c3ccc(C(F)(F)F)c(c3)OCCCOC(=O)N21 (some centres unmarked) [Example 52, N-((2^1S,2^4S,5^2R,5^3S,5^5R)-5^5-methyl-6-oxo-1^4-(trifluoromethyl)-3,7,11-trioxa-5(2,1)-pyrrolidina-1(1,3)-benzena-2(1,4)-cyclohexanacycloundecaphane-5^3-yl)methanesulfonamide] | 98.4
C[C@@H]1C[C@H](NS(C)(=O)=O)C2COC3CCC(CC3)c3cc(ccc3OC(F)(F)F)OCCOC(=O)N21 (some centres unmarked) [Example 53, N-((2^1S,2^4S,5^2R,5^3S,5^5R)-5^5-methyl-6-oxo-16-(trifluoromethoxy)-3,7,10-trioxa-5(2,1)-pyrrolidina-1(1,3)-benzena-2(1,4)-cyclohexanacyclodecaphane-5^3-yl)methanesulfonamide] | 103
C[C@@H]1C[C@H](NS(C)(=O)=O)C2COC3CCC(CC3)c3cc(C(F)(F)F)cc(n3)OCCOC(=O)N21 (some centres unmarked) [Example 54, N-((2^1S,2^4S,5^2R,5^3S,5^5R)-5^5-methyl-6-oxo-1^4-(trifluoromethyl)-3,7,10-trioxa-1(2,6)-pyridina-5(2,1)-pyrrolidina-2(1,4)-cyclohexanacyclodecaphane-5^3-yl)methanesulfonamide] | 100
C[C@@H]1C[C@H](NS(C)(=O)=O)C2COC3CCC(CC3)c3cnc(F)c(c3)OCCCOC(=O)N21 (some centres unmarked) [Example 55, N-((2^1S,2^4S,5^2R,5^3S,5^5R)-1^6-fluoro-5^5-methyl-6-oxo-3,7,11-trioxa-1(3,5)-pyridina-5(2,1)-pyrrolidina-2(1,4)-cyclohexanacycloundecaphane-5^3-yl)methanesulfonamide] | 103
C[C@@H]1C[C@H](NS(C)(=O)=O)C2COC3CCC(CC3)c3ccc(F)c(n3)OCCOC(=O)N21 (some centres unmarked) [Example 56, N-((2^1S,2^4S,5^2R,5^3S,5^5R)-1^5-fluoro-5^5-methyl-6-oxo-3,7,10-trioxa-1(2,6)-pyridina-5(2,1)-pyrrolidina-2(1,4)-cyclohexanacyclodecaphane-5^3-yl)methanesulfonamide] | 98.2
C[C@@H]1C[C@H](NS(C)(=O)=O)C2COC3CCC(CC3)c3ccc(F)c(n3)OCCCOC(=O)N21 (some centres unmarked) [Example 57, N-((2^1S,2^4S,5^2R,5^3S,5^5R)-1^5-fluoro-5^5-methyl-6-oxo-3,7,11-trioxa-1(2,6)-pyridina-5(2,1)-pyrrolidina-2(1,4)-cyclohexanacycloundecaphane-5^3-yl)methanesulfonamide] | 102
C[C@@H]1C[C@H](NS(C)(=O)=O)C2COC3CCC(CC3)c3nc(ccc3OC(F)(F)F)OCCOC(=O)N21 (some centres unmarked) [Example 58, N-((2^1S,2^4S,5^2R,5^3S,5^5R)-5^5-methyl-6-oxo-1^3-(trifluoromethoxy)-3,7,10-trioxa-1(2,6)-pyridina-5(2,1)-pyrrolidina-2(1,4)-cyclohexanacyclodecaphane-5^3-yl)methanesulfonamide] | 102
C[C@@H]1C[C@H](NS(C)(=O)=O)C2COC3CCC(CC3)c3nc(ccc3OC(F)(F)F)OCCCOC(=O)N21 (some centres unmarked) [Example 59, N-((2^1S,2^4S,5^2R,5^3S,5^5R)-5^5-methyl-6-oxo-1^3-(trifluoromethoxy)-3,7,11-trioxa-1(2,6)-pyridina-5(2,1)-pyrrolidina-2(1,4)-cyclohexanacycloundecaphane-5^3-yl)methanesulfonamide] | 96.9
CC(C)Oc1ccc2cc1C1CCC(CC1)OCC1[C@@H](NS(C)(=O)=O)C[C@@H](C)N1C(=O)OCCO2 (some centres unmarked) [Example 62, N-((2^1S,2^4S,5^2R,5^3S,5^5R)-1^6-isopropoxy-5^5-methyl-6-oxo-3,7,10-trioxa-5(2,1)-pyrrolidina-1(1,3)-benzena-2(1,4)-cyclohexanacyclodecaphane-5^3-yl)methanesulfonamide] | 91.2
CC(C)Oc1ccc2cc1C1CCC(CC1)OCC1[C@@H](NS(C)(=O)=O)C[C@@H](C)N1C(=O)OCCCO2 (some centres unmarked) [Example 63, N-((2^1S,2^4S,5^2R,5^3S,5^5R)-1^6-isopropoxy-5^5-methyl-6-oxo-3,7,11-trioxa-5(2,1)-pyrrolidina-1(1,3)-benzena-2(1,4)-cyclohexanacycloundecaphane-5^3-yl)methanesulfonamide] | 93.1
C[C@@H]1C[C@H](NS(C)(=O)=O)C2COC3CCC(CC3)c3ccc(C(F)(F)F)c(n3)OCCOC(=O)N21 (some centres unmarked) [Example 64, N-((2^1S,2^4S,5^2R,5^3S,5^5R)-5^5-methyl-6-oxo-1^5-(trifluoromethyl)-3,7,10-trioxa-1(2,6)-pyridina-5(2,1)-pyrrolidina-2(1,4)-cyclohexanacyclodecaphane-5^3-yl)methanesulfonamide] | 102
C[C@@H]1C[C@H](NS(C)(=O)=O)C2COC3CCC(CC3)c3ccc(C(F)(F)F)c(n3)OCCCOC(=O)N21 (some centres unmarked) [Example 65, N-((2^1S,2^4S,5^2R,5^3S,5^5R)-5^5-methyl-6-oxo-1^5-(trifluoromethyl)-3,7,11-trioxa-1(2,6)-pyridina-5(2,1)-pyrrolidina-2(1,4)-cyclohexanacycloundecaphane-5^3-yl)methanesulfonamide] | 103
Cc1cc2nc(c1)C1CCC(CC1)OCC1[C@@H](NS(C)(=O)=O)C[C@@H](C)N1C(=O)OCCO2 (some centres unmarked) [Example 66, N-((2^1S,2^4S,5^2R,5^3S,5^5R)-1^4,5^5-dimethyl-6-oxo-3,7,10-trioxa-1(2,6)-pyridina-5(2,1)-pyrrolidina-2(1,4)-cyclohexanacyclodecaphane-5^3-yl)methanesulfonamide] | 95
Cc1cc2nc(c1)C1CCC(CC1)OCC1[C@@H](NS(C)(=O)=O)C[C@@H](C)N1C(=O)OCCCO2 (some centres unmarked) [Example 67, N-((2^1S,2^4S,5^2R,5^3S,5^5R)-1^4,5^5-dimethyl-6-oxo-3,7,11-trioxa-1(2,6)-pyridina-5(2,1)-pyrrolidina-2(1,4)-cyclohexanacycloundecaphane-5^3-yl)methanesulfonamide] | 98.5
